The results in this text go back to patent US12215133B2 (BrightGene Bio-Medical Technology Co., Ltd., priority 2021, dated 2025).

Assay [1] has as its target T1, GLP-1 receptor (Homo sapiens, UniProt P43220).
T1 construct: expressed in transfected cells; host or cells: HEK293 cell line
Put plainly: cAMP experiment, GLP-1 receptor (HEK293 host cell line). The assay is classed as cell-based. The following applies: HEK293 host cells.

The target of assay [2] is T2, GIP receptor (Homo sapiens, UniProt P48546).
T2 construct: expressed in transfected cells; host or cells: CHO cell line
T2 sequence (P48546 22-466): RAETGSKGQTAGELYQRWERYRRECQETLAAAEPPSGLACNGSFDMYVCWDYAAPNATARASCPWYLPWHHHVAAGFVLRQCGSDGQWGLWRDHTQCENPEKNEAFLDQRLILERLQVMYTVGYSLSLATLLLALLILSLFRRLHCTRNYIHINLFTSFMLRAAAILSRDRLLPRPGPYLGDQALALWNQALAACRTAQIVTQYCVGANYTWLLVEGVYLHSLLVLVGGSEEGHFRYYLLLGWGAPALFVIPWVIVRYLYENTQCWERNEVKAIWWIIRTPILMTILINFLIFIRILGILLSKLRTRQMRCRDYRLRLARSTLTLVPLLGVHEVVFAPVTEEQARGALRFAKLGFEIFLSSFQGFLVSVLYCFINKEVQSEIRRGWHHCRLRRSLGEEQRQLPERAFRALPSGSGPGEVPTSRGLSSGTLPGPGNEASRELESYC
The assay is described as follows: cAMP experiment, GIP receptor (CHO host cell line). The assay is classed as cell-based. The following applies: CHO host cells.

T1 sequence (P43220 24-463, species assumed): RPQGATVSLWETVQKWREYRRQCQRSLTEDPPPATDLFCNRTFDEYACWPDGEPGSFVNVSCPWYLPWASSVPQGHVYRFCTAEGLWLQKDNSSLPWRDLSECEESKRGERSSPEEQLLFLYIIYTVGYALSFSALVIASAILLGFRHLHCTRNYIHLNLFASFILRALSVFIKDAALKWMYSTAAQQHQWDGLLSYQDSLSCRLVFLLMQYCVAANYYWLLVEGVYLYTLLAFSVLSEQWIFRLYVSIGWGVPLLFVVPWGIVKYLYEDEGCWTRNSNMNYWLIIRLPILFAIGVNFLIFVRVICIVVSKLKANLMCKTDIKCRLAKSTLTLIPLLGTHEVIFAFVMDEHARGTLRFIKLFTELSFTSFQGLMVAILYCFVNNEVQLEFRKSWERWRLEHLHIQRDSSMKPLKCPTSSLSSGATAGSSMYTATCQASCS

By EC50 is commonly meant the midpoint of the concentration-response curve. Low values mean higher potency in that assay, high ones lower potency in that assay. `CC[C@H](C)[C@H](NC(=O)[C@H](CC(C)C)NC(=O)[C@H](Cc1c[nH]c2ccccc12)NC(=O)[C@H](CCC(N)=O)NC(=O)[C@@H](NC(=O)[C@H](Cc1ccccc1)NC(=O)[C@H](C)NC(=O)[C@H](CCCCN)NC(=O)[C@H](CCC(N)=O)NC(=O)[C@H](C)NC(=O)[C@@H](NC(=O)[C@H](CCCCNC(=O)COCCOCCOCCNC(=O)COCCOCCOCCNC(=O)CC[C@H](NC(=O)CCCCCCCCCCCCCCCCCCC(=O)O)C(=O)O)NC(=O)[C@H](CC(=O)O)NC(=O)[C@H](CC(C)C)NC(=O)C(C)(C)NC(=O)[C@@H](NC(=O)[C@H](CO)NC(=O)[C@H](Cc1ccc(O)cc1)NC(=O)[C@H](CC(=O)O)NC(=O)[C@H](CO)NC(=O)[C@@H](NC(=O)[C@H](Cc1ccccc1)NC(=O)[C@@H](NC(=O)CNC(=O)[C@H](CCC(=O)O)NC(=O)C(C)(C)NC(=O)[C@@H](N)Cc1ccc(O)cc1)[C@@H](C)O)[C@@H](C)O)[C@@H](C)CC)[C@@H](C)CC)C(C)C)C(=O)N[C@@H](C)C(=O)NCC(=O)NCC(=O)N1CCC[C@H]1C(=O)N[C@@H](CO)C(=O)N[C@@H](CO)C(=O)NCC(=O)N[C@@H](C)C(=O)N1CCC[C@H]1C(=O)N1CCC[C@H]1C(=O)N1CCC[C@H]1C(=O)N[C@@H](CO)C(N)=O` [BGM125, reference compound]: the values for the EC50 in assay [1] and in assay [2] were 0.0692 nM and 0.684 nM, respectively.
